From patent US7220768B2, “Isoxazole-containing thiourea inhibitors useful for treatment of varicella zoster virus” (Wyeth Holdings Corp., priority 2003, dated 2007)
Converted amounts (≈) assume the structure as drawn.

Legend:
HCMV = assay: Human cytomegalovirus yield / microtiter plate assay; format: cell-based; conditions: human foreskin fibroblasts; for IC50: Human betaherpesvirus 5, Fibroblast
Protocol: Yield Assay. Monolayer cultures of human foreskin fibroblasts are infected with HCMV wild-type virus, typically at a multiplicity of infection equal to 0.2, in the presence of inhibitors compound (varying concentrations). At three days post-infection, total virus produced in these cultures (i.e. virus yield) is assessed by harvesting and titering the virus in 12-well plates of cultured human foreskin fibroblasts (done in the absence of inhibitors). Plaques are quantified at 2 weeks post-infection. An inhibitor of HCMV is identified by the reduction in titer of virus yield in the presence, compared to the titer in the absence of compound. In this assay, the relative anti-HCMV activity of an inhibitor is typically determined by calculating the IC50 or IC90 value, that is, the amount of compound required to reduce the virus yield by 50% or 90%, respectively. Table 2 describes IC50 data for compounds tested against HCMV.
Microtiter Plate Assay. Ninety-six well plate cultures of human foreskin fibroblasts are infected in the presence of inhibitor compound with a HCMV recombinant mutant virus whose genome contains the prokaryotic beta-glucuronidase gene (Jefferson, R. A., S. M. Burgess, and D. Hirsh. 1986. Beta-glucuronidase from Escherichia coli as a gene fusion marker. Proc. Natl. Acad. Sci. USA 83:8447–8451) whose expression is controlled by a viral promoter. An example of such a virus is RV145 [T. R. Jones; V. P. Muzithras, and Y. Gluzman. 1991, Replacement mutagenesis of the human cytomegalovirus genome: US10 and US11 gene products are nonessential, J. Virol. 65:5860–5872]. Since it is under the control of a viral promoter, beta-glucuronidase expression is an indirect indicator of growth and replication of HCMV in this assay. At 96 hours post-infection, the infected cell lysates are prepared (using 50 mM sodium phosphate [pH 7.0] containing 0.1% Triton X-100 and 0.1% sarkosyl) and assayed for beta-glucuronidase activity using a substrate for the enzyme which when cleaved yields either a product which can be measured colorimetrically in a spectrophotometer or fluorescently in a microfluorimeter. Examples of such substrates are p-nitrophenyl-beta-D-glucuronide and methylumbelliferylglucuronide, respectively. The presence of an antiviral compound is indicated by the reduced expression of the HCMV genome resident beta-glucuronidase gene, compared to the absence of inhibitor. […] Data from this assay generated using varying amounts of inhibitor compound is also used to estimate the IC50 of an inhibitor compound.

RSV = RSV antiviral assay (Table 2); format: cell-based; conditions: for IC50: human respiratory syncytial virus
MTS assay (Table 2) = format: cell-based
VZV = VZV antiviral assay (Table 2); format: cell-based, varicella zoster virus; conditions: for IC50: Human alphaherpesvirus 3
HSV = HSV Antiviral (ELISA) Assay; format: cell-based, herpes simplex virus; conditions: Vero cells
Protocol: HSV Antiviral (ELISA) Assay. Vero cells (ATCC #CCL-81) are plated on 96-well tissue culture plates at 3.5×10^4 cells per 100 μl tissue culture DMEM (Dulbecco's modified Eagle media) supplemented with 2% fetal bovine serum (FBS) in each well. After overnight incubation, inhibition was determined by comparing the fluorescence obtained in absence of compound to that obtained in the presence of compound.

CC(NC(=S)Nc1ccc(-c2nocc2CO)cc1)c1ccc(F)cc1 (stereo not shown) [Example 9, 1-[1-(4-Fluorophenyl)ethyl]-3-[4-(4-hydroxymethylisoxazol-3-yl)phenyl]thiourea]
IC50 (HCMV): 5.7 µg/mL (≈ 15.3 µM) | IC50 (RSV): 7.2 µg/mL (≈ 19.4 µM) | IC50 (MTS assay (Table 2)): > 15 µg/mL | IC50 (VZV): 2 µg/mL (≈ 5.38 µM) | IC50 (HSV): > 10 µg/mL

CC(NC(=S)Nc1ccc(-c2nocc2Cc2ccccc2)cc1)c1ccc(F)cc1 (stereo not shown) [Example 10, 1-[4-(4-Benzylisoxazol-3-yl)phenyl]-3-[1-(4-fluorophenyl)ethyl]thiourea]
IC50 (HCMV): 2.4 µg/mL (≈ 5.56 µM) | IC50 (RSV): > 10 µg/mL | IC50 (MTS assay (Table 2)): > 15 µg/mL | IC50 (VZV): 0.086 µg/mL (≈ 0.199 µM) | IC50 (HSV): > 10 µg/mL

CC(NC(=S)Nc1ccc(-c2nocc2Cc2ccc(F)cc2)cc1)c1ccc(F)cc1 (stereo not shown) [Example 11, 1-{4-[4-(4-Fluorobenzyl)isoxazol-3-yl]phenyl}-3-[1-(4-fluorophenyl)ethyl]thiourea]
IC50 (HCMV): 1.8 µg/mL (≈ 4 µM) | IC50 (RSV): 4.7 µg/mL (≈ 10.5 µM) | IC50 (MTS assay (Table 2)): 1.9 µg/mL (≈ 4.23 µM) | IC50 (VZV): 0.16 µg/mL (≈ 0.356 µM) | IC50 (HSV): 2.1 µg/mL (≈ 4.67 µM)

CC(NC(=S)Nc1ccc(-c2nocc2-c2ccccc2)cc1)c1ccc(F)cc1 (stereo not shown) [Example 12, 1-[1-(4-Fluoropheny)ethyl]-3-[4-(4-phenylisoxazol-3-yl)phenyl]thiourea]
IC50 CMV (HCMV): >10 µg/mL | IC50 RSV (RSV): >10 µg/mL | IC50 MTS (MTS assay (Table 2)): >15 µg/mL | IC50 VZV (VZV): 0.37 µg/mL (≈ 0.886 µM) | IC50 HSV (HSV): >10 µg/mL

CC(NC(=S)Nc1ccc(-c2nocc2C(C)(C)C)cc1)c1ccc(F)cc1 (stereo not shown) [Example 13, 1-[4-(4-tert-Butylisoxazol-3-yl)phenyl]-3-[1-(4-fluorophenyl)ethyl]thiourea]
IC50 (HCMV): 1.3 µg/mL (≈ 3.27 µM) | IC50 (RSV): 2.1 µg/mL (≈ 5.28 µM) | IC50 (MTS assay (Table 2)): 1.5 µg/mL (≈ 3.77 µM) | IC50 (VZV): 0.23 µg/mL (≈ 0.579 µM) | IC50 (HSV): 2.3 µg/mL (≈ 5.79 µM)

CC(NC(=S)Nc1ccc(-c2nocc2-c2ccccc2F)cc1)c1ccc(F)cc1 (stereo not shown) [Example 14, 1-[1-(4-Fluorophenyl)ethyl]-3-{4-[4-(2-fluorophenyl)isoxazol-3-yl]phenyl}thiourea]
IC50 (HCMV): > 10 µg/mL | IC50 (RSV): > 10 µg/mL | IC50 (MTS assay (Table 2)): > 15 µg/mL | IC50 (VZV): 5.4 µg/mL (≈ 12.4 µM) | IC50 (HSV): > 10 µg/mL

CC(NC(=S)Nc1ccc(-c2conc2-c2cccnc2)cc1)c1ccc(F)cc1 (stereo not shown) [Example 15, N-[1-(4-Fluorophenyl)ethyl]-N′-{4-[3-(3-pyridinyl)-4-isoxazolyl]phenyl}thiourea]
IC50 (HCMV): > 10 µg/mL | IC50 (RSV): > 10 µg/mL | IC50 (MTS assay (Table 2)): 14 µg/mL (≈ 33.5 µM) | IC50 (VZV): 0.19 µg/mL (≈ 0.454 µM) | IC50 (HSV): 3.1 µg/mL (≈ 7.41 µM)

CC(NC(=S)Nc1ccc(-c2conc2-c2ccnc3ccccc23)cc1)c1ccc(F)cc1 (stereo not shown) [Example 16, N-[1-(4-Fluorophenyl)ethyl]-N′-{4-[3-(4-quinolinyl)-4-isoxazolyl]phenyl}thiourea]
IC50 (HCMV): 0.8 µg/mL (≈ 1.71 µM) | IC50 (RSV): 2.3 µg/mL (≈ 4.91 µM) | IC50 (MTS assay (Table 2)): 6.5 µg/mL (≈ 13.9 µM) | IC50 (VZV): 0.08 µg/mL (≈ 0.171 µM) | IC50 (HSV): 3.1 µg/mL (≈ 6.62 µM)

CC(NC(=S)Nc1ccc(-c2conc2-c2ccncc2)cc1)c1ccc(F)cc1 (stereo not shown) [Example 17, N-[1-(4-Fluorophenyl)ethyl]-N′-{4-[3-(4-pyridinyl)-4-isoxazolyl]phenyl}thiourea]
IC50 (HCMV): 0.93 µg/mL (≈ 2.22 µM) | IC50 (RSV): 1.5 µg/mL (≈ 3.58 µM) | IC50 (MTS assay (Table 2)): 5.5 µg/mL (≈ 13.1 µM) | IC50 (VZV): 0.14 µg/mL (≈ 0.335 µM) | IC50 (HSV): 3.7 µg/mL (≈ 8.84 µM)

CC(NC(=S)Nc1ccc(-c2conc2-c2ccc(N)cc2)cc1)c1ccc(F)cc1 (stereo not shown) [Example 18, N-{4-[3-(4-Aminophenyl)-4-isoxazolyl]phenyl}-N′-[1-(4-fluorophenyl)ethyl]thiourea]
IC50 (HCMV): 2 µg/mL (≈ 4.62 µM) | IC50 (RSV): > 10 µg/mL | IC50 (MTS assay (Table 2)): 13 µg/mL (≈ 30.1 µM) | IC50 (VZV): 0.05 µg/mL (≈ 0.116 µM) | IC50 (HSV): > 10 µg/mL

CC(NC(=S)Nc1ccc(-c2conc2-c2csnn2)cc1)c1ccc(F)cc1 (stereo not shown) [Example 19, N-[1-(4-Fluorophenyl)ethyl]-N′-{4-[3-(1,2,3-thiadiazol-4-yl)-4-isoxazolyl]phenyl}thiourea]
IC50 (HCMV): 0.9 µg/mL (≈ 2.12 µM) | IC50 (RSV): > 10 µg/mL | IC50 (MTS assay (Table 2)): > 15 µg/mL | IC50 (VZV): 0.13 µg/mL (≈ 0.306 µM) | IC50 (HSV): > 10 µg/mL

CC(NC(=S)Nc1ccc(-c2conc2-c2ccccn2)cc1)c1ccc(F)cc1 (stereo not shown) [Example 20, N-[1-(4-Fluorophenyl)ethyl]-N′-{4-[3-(2-pyridinyl)-4-isoxazolyl]phenyl}thiourea]
IC50 (HCMV): > 10 µg/mL | IC50 (RSV): > 10 µg/mL | IC50 (MTS assay (Table 2)): > 15 µg/mL | IC50 (VZV): 0.18 µg/mL (≈ 0.43 µM) | IC50 (HSV): > 10 µg/mL

CC(NC(=S)Nc1ccc(-c2conc2-c2ccc(N(C)C)cc2)cc1)c1ccc(F)cc1 (stereo not shown) [Example 21, N-(4-{3-[4-(Dimethylamino)phenyl]-4-isoxazolyl}phenyl)-N′-[1-(4-fluorophenyl)ethyl]thiourea]
IC50 (HCMV): 9.3 µg/mL (≈ 20.2 µM) | IC50 (RSV): > 10 µg/mL | IC50 (MTS assay (Table 2)): > 15 µg/mL | IC50 (VZV): 0.34 µg/mL (≈ 0.738 µM) | IC50 (HSV): > 10 µg/mL

CC(NC(=S)Nc1ccc(-c2conc2-c2ccc(O)cc2)cc1)c1ccc(F)cc1 (stereo not shown) [Example 22, N-[1-(4-Fluorophenyl)ethyl]-N′-{4-[3-(4-hydroxyphenyl)-4-isoxazolyl]phenyl}thiourea]
IC50 (HCMV): 2.5 µg/mL (≈ 5.77 µM) | IC50 (RSV): 9.9 µg/mL (≈ 22.8 µM) | IC50 (MTS assay (Table 2)): > 15 µg/mL | IC50 (VZV): 0.61 µg/mL (≈ 1.41 µM) | IC50 (HSV): > 10 µg/mL

CC(NC(=S)Nc1ccc(-c2conc2-c2ccccc2)cc1)c1ccc(F)cc1 (stereo not shown) [Example 23, N-[1-(4-Fluorophenyl)ethyl]-N′-[4-(3-phenyl-4-isoxazolyl)phenyl]thiourea]
IC50 (HCMV): > 10 µg/mL | IC50 (RSV): > 10 µg/mL | IC50 (MTS assay (Table 2)): > 15 µg/mL | IC50 (VZV): 0.89 µg/mL (≈ 2.13 µM) | IC50 (HSV): > 10 µg/mL

CC(NC(=S)Nc1ccc(-c2conc2-c2ncc[nH]2)cc1)c1ccc(F)cc1 (stereo not shown) [Example 24, N-[1-(4-Fluorophenyl)ethyl]-N′-{4-[3-(1 H-imidazol-2-yl)-4-isoxazolyl]phenyl}thiourea]
IC50 (HCMV): > 10 µg/mL | IC50 (RSV): > 10 µg/mL | IC50 (MTS assay (Table 2)): > 15 µg/mL | IC50 (VZV): 1 µg/mL (≈ 2.45 µM) | IC50 (HSV): > 10 µg/mL

CC(NC(=S)Nc1ccc(-c2conc2-c2ccccc2O)cc1)c1ccc(F)cc1 (stereo not shown) [Example 25, N-[1-(4-Fluorophenyl)ethyl]-N′-{4-[3-(2-hydroxyphenyl)-4-isoxazolyl]phenyl}thiourea]
IC50 (HCMV): 7.9 µg/mL (≈ 18.2 µM) | IC50 (RSV): > 10 µg/mL | IC50 (MTS assay (Table 2)): > 15 µg/mL | IC50 (VZV): 1.9 µg/mL (≈ 4.38 µM) | IC50 (HSV): > 10 µg/mL
